What all share (format): cell-based
The test system of data set [1] is HeLa cells expressing Q79 expanded polyglutamine repeats. Put plainly: Cell death induced by TNF-α/CHX, Fas/CHX or H2O2. The following applies: 100 μM, one hour before the inducing agent; cell death 48 hours later. Here is the method:
FIG. 5F is a graph of the effects of Congo red, ZVAD, or vehicle (NT) on cell death when the cells are induced to die by receptor mediated pathways (TNF-α/cycloheximide (CHX), Fas/cycloheximide (CHX)), or necrosis (hydrogen peroxide).
(§1) HeLa cells expressing Q79 expanded polyglutamine repeats were treated with 100 μM Congo red, or 100 μM ZVAD (a positive control) for one hour prior to the addition of the apoptosis-inducing agent, and cell death was determined 48 hours later. […] Finally we tested whether Congo red can inhibit apoptosis induced by overexpression of caspase-1, -8, or -11.

Data set [2] deals with HeLa cells transfected with a Q79-GFP construct. Put plainly: Polyglutamine-induced cell death in HeLa cells. The protocol:
FIG. 4A is two graphs showing the effect of Congo red, tetracyclines, and sulfated polyanions on polyglutamine-induced cell death in, each graph representing a separate experiment. HeLa cells transfected with a Q79-GFP construct were treated with 100 μM of minocycline (mino), Chrysamine G (CG), Rolitetracycline (Ro), iota carrageenan (iota), dextran 500 (dextran), or Congo red (CR), six hours after transfection. The amount of cell death was determined 48 hours after transfection by morphological criteria as previously described (Sanchez et al., supra).
In a cell expressing Q79-GFP polypeptides, polyglutamine aggregates are formed and the cell dies by apoptosis (Sanchez, supra). Cell viability was determined by morphological criteria characteristic of apoptosis, including cell blebbing, shrinking. Total cell lysates and tissue homogenates were obtained using Buffer A: 1% triton in PBS, containing 10 μg/ml DNAse and protease inhibitors; leupeptin 20 μg/ml, aprotinin 20 u/ml, and PMSF 100 mM. The proteins were separated by 12% SDS/PAGE and transferred to PVDF Immobilon membrane (Millipore, Inc). Antibodies used included rabbit polyclonal antibodies; EM48 (Li et al., Mol. Neurobiol. 20:111-124, 2000) anti-heat shock proteins 40 and 70 (Stressgen, Co.), and rat monoclonal anti-caspase-8 antibody.
These effects were determined by visual inspection of GFP-positive cells under an inverted fluorescence microscope. In addition, the occurrence of apoptosis of these transfected cell samples was confirmed by staining the cells with trypan blue, propidium iodide, or Hoescht 33342 to examine the cellular or nuclear morphology.
Compounds that disrupt other types of aggregates, for example, amyloid fibril aggregates were tested for their ability to disrupt pre-formed polyglutamine aggregates. HeLa Cells were transfected with a Q79-GFP construct. Six hours later, Iota-carrageenan, dextran, minocycline, rolitetracycline, and Chrysamine G (1 nM to 100 μM) were each incubated with the cells. Seventy-two hours post-transfection, the cells were evaluated for the occurrence of cell death, by visual inspection under an inverted fluorescence microscope.

Data set [3] relates to FADDdn, caspase-8dn, and HD exon-1 (Q25)-GFP. Put plainly: Recruitment of polyglutamine interacting proteins. The conditions noted are these: HeLa co-transfected with Q-79. The text has this: FIG. 7A is a graph of the effect of Congo red or ZVAD on the recruitment of caspase-8, a death domain, or proteins containing short polyglutamine repeats by expanded polyglutamine oligomerization in cells transfected with a Q79-GFP expression construct and a caspase-8 (GFP-casp 8DN), death domain (GFP-FADD DN), or short polyglutamine (HD-1 (Q25)-GFP) protein recruitment.
We co-transfected HeLa cells with Q-79 and one of the following expression constructs, GFP-FADDdn (GFP fused to the death domain of FADD adapter protein, that generates a dominant negative FADD polypeptide (missing the first 80 amino acids of the full length protein)), GFP-caspase-8dn (GFP-tagged C360S mutant of caspase-8, generating a dominant negative caspase-8 polypeptide; Sanchez et al., supra), or GFP-exon-1 (Q25) (a GFP fusion construct containing the first exon of human huntingtin protein, encoding a 25 polyglutamine stretch; Kazantsev et al., Proc. Natl. Acad. Sci. USA 96:[…], 1999), in the presence of ZVAD or of Congo red (FIGS. 7A and B).

The test system of data set [4] is non-transfected HeLa cells. Put plainly: Total cellular protein degradation. The following applies: Congo red 100 μM, ZVAD 100 μM, MG132 10 μM; H3-tyrosine release, 0 to 180 minutes. Here is the method: FIG. 8C is a graph of the effect of effect of Congo red, ZVAD, or the proteosome inhibitor MG132 on total cellular protein degradation in non-transfected HeLa cells.
To rule out the possibility that Congo red may have an effect on protein degradation in general, we tested the effect of Congo red on proteosome degradation. Rates of total cellular protein degradation experiments, from cells seeded in 12 well dishes at 2×10^4, treated with Congo red (100 μM), ZVAD (100 μM), or the proteosome inhibitor MG132 (10 μM) and labeled with 5 μCi/ml of H^3-tyrosine for 1 hour. One hundred microliter culture medium aliquots were collected at 0, 30, 60, 90, 120, and 180 minute time points, and the levels of H^3-tyrosine were determined using an LS6000 scintillation counter (Beckman, Co).

Data set [5] deals with Q79-expressing HeLa cells. Put plainly: Turnover of S35-labeled expanded polyglutamine repeats. Here is the method: FIG. 8A is a set of scanned autoradiograms showing the effect of Congo red on expanded polyglutamine repeat turn-over, as assessed by relative levels of S^35 labeled polyQ (Q79) protein, with or without Congo red treatment. Q79-HA expressing cells were metabolically labeled with S^35 methionine for one hour. Cells were harvested one and 24 hours after labeling. PolyQ protein was immunoprecipitated with an anti-HA antibody, and the proteins were separated by electrophoresis before blotting.
We next determined whether inhibition and disruption of Q79 oligomers changed its turnover kinetics by measuring pulse-S^35-labeled polyglutamine levels in the presence or absence of Congo red.

The subject of a further data set is cells; primary neurons. Put plainly: Compound toxicity in cells.
For another data set, the system named is caspase-1, -8, or -11. Put plainly: Apoptosis induced by overexpression of caspases. Here is the method:
FIG. 5H is a graph of the effects of Congo red on cell death induced by caspase over-expression(caspases-8, -1, or -11).
as §1

In the case of `Nc1c(/N=N/c2ccc(-c3ccc(/N=N/c4cc(S(=O)(=O)O)c5ccccc5c4N)cc3)cc2)cc(S(=O)(=O)O)c2ccccc12` [Congo red, diphenyldiazo-bis-alpha-napthylaminesulfonate], the “cell death induced by TNF-α/CHX, Fas/CHX, or H2O2” value in data set [1] is “No effect”. The “cell death, as indicated by morphology” value in data set [2] (HA-tagged Q79-GFP, caspase-8 experiment) is “significantly inhibited ATP loss and cell death”. In data set [2] (Q79-GFP, compound added six hours after transfection, 1 nM to 100 μM (FIG. 4A: 100 μM), seventy-two hours post-transfection), the “Polyglutamine-induced Cell Death” value is reported as “+ (Each + indicates approximately 20% cell death.)”. The “recruitment of FADDdn, caspase-8dn, and HD exon-1 (Q25)-GFP” value in data set [3] was “decreased the concurrent recruitment of FADDdn, caspase-8dn, and HD exon-1 (Q25)-GFP”. Moreover, the general protein degradation entry in data set [4] is “neither Congo red nor ZVAD had any effect”. The “steady state levels of HA-Q79” value in data set [5] (Western blot, compared to negative controls) is “only slightly reduced steady state levels”. Also, in data set [5] (after chase for 24 hours, versus control cells), the “level of S35-labeled polyglutamine” value was “more than two fold lower”. For the same molecule, the “expression (synthesis) of expanded polyglutamine” value in data set [5] (one hour after chase) is listed as “did not prevent the expression of expanded polyglutamine”. Moreover, in data set [5] (versus control cells), the “turnover rate of S35-labeled Q79” value is listed as “at least a two fold higher turnover rate”. The “compound toxicity in cells” value with cells; primary neurons is reported as “not toxic even to primary neurons”. Moreover, in the data set with caspase-1, -8, or -11, the “apoptosis induced by overexpression of caspase-1, -8, or -11” value is on record as “had no effect on caspase induced cell death”.

Values taken from US20020155172A1, “Methods and compounds for decreasing cell toxicity or death” (priority 2000, published 2002).
